“And” between values parts separate entries of the source, which are not always exact repeats. Identical values can stand only once. Like-named read-outs stand apart in the source and are kept apart here.
Legend:
5-HT transporter (h) = target: T1, 5-HT transporter (h) (Homo sapiens, UniProt P31645); test: Serotonin transporter (antagonist radioligand) competition binding; conditions: for Affinity (Ki) SERT: Eurofins/Cerep, N.B. denotes no binding at 100 μM
T1 construct: Eurofins/Cerep (contract testing)
Procedure: (§1) Compounds (1) and (2) were tested at several concentrations for IC50 or EC50 determination at target receptors. […] For antagonist assays, Kb affinity values were calculated from IC50 values using GraphPad Prism 9 (San Diego, Calif. USA).

human M3R = target: T2, human M3R (Homo sapiens, UniProt P20309); test: biochemical; type: binding
T2 construct: host or cells: HEK293 (CRL-1573, ATCC), transient
Procedure: (§2) Radioligand Competition Binding: Radioligand competition binding assays were conducted using membranes collected from transiently transfected HEK293 cells (P<20 from a procured stock, CRL-1573, ATCC, Manassas, Va., USA) as previously described (Chen, Y., et al. Drug Test Anal 11, 990-998). Briefly, cells ˜90% confluent in 10 cm plates were transfected with 5 μg human M1R, M2R, M3R, M4R or […] cDNA (cDNA resource center, Bloomsburg, Pa., USA) using a lipid-based method (LipoD293 reagent, SignaGen Laboratories, Rockville, Md., USA). Membranes were collected by centrifugation about 48 hours later and stored at −80° C. until used. […] After a 90-minute incubation at room temperature on a shaker, contents from the plates were rapidly filtered through GF/B fiberglass filter mats, pre-soaked with ice cold 50 mM Tris buffer (pH 7.4), using a Microbeta Filtermat-96 cell harvester (Perkin Elmer, Waltham, Mass., USA). Approximately 200 mL of ice cold, 50 mM Tris buffer was then vacuumed through filter mats to wash away unbound radioligand. Filter mats were dried on a hot plate and soaked in Betaplate (Perkin Elmer, Waltham, Mass., USA) scintillation fluid in plastic bags. Bags were sealed and placed in cassettes. Radioactivity was measured in a Microbeta2 Microplate Counter (Perkin Elmer, Waltham, Mass., USA), and counts per minute corresponding to each well on the plates were recorded. For full dose-response competition binding assays, increasing half-log unit concentrations of five unsubstituted PSCs were tested at M2Rs and M1Rs, with the same procedures described above.
(§3) Curve Fitting and Statistical Analyses: All data were analyzed by GraphPad 8.3.0 (San Diego, Calif., USA). Ki values were determined from data fit to both one- and two-site models. […] EC50 and IC50 values from functional assays were determined from data fit to the log(agonist) vs. response (three parameters) or log(inhibitor) vs. response (three parameters) model, respectively. Kb values were calculated from IC50 values using the Cheng-Prusoff equation with modification (see, e.g., Leff, P., and Dougall, I. G. (1993) Trends Pharmacol Sci 14, 110-112): Kb=IC50/((2+([A]/[A50])nH)1/nH−1)

Serotonin transporter = target: T3, Serotonin transporter (Rattus norvegicus, UniProt P31652); test: Serotonin transporter uptake (rat brain synaptosomes); type: biochemical
T3 construct: tissue Eurofins/Cerep (contract testing); host or cells: rat brain synaptosomes (per the earlier reading)
Procedure: as §1

human M2R = target: T4, human M2R (Homo sapiens, UniProt P08172); test: [3H]Scopolamine radioligand competition binding at M2R; conditions: for M2 Selectivity: range of Ki ratios of M1, M3, M4, M5 versus M2
T4 construct: host or cells: HEK293 (CRL-1573, ATCC), transient
T4 sequence (P08172 1-466): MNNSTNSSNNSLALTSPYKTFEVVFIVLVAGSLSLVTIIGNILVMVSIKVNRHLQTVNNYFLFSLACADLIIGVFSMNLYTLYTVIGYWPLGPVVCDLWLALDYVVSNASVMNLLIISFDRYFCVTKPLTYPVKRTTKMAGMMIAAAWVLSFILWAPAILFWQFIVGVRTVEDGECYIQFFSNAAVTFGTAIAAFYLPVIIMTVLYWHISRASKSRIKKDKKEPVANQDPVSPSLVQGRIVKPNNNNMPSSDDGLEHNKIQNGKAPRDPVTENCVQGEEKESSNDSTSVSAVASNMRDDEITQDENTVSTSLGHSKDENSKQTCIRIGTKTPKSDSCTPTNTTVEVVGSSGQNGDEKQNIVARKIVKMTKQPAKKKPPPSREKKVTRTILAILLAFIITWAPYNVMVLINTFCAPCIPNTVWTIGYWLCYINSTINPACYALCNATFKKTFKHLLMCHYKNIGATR
Procedure: as §2, §3

[1] = target: T5, Norepinephrine transporter (h) (Homo sapiens, UniProt P23975); test: Norepinephrine transporter (h) (antagonist radioligand) competition binding; conditions: for nH: Norepinephrine transporter (h) (antagonist radioligand)
T5 construct: Eurofins/Cerep (contract testing)
Procedure: For antagonist assays, Kb affinity values were calculated from IC50 values using GraphPad Prism 9 (San Diego, Calif. USA).

[2] = system: mice on the FVB background; test: Open field locomotor activity in mice; type: in vivo; conditions: 2.8 mg/kg, s.c., 20-min open field
Procedure: Since functional inhibition of neurotransmitter transporters, particularly DAT, is classically known to cause psychomotor stimulation, the ability of Compound (1) to induce this effect in mice was assessed, directly comparing results to α-PHP, a pyrrolidine-substituted analog of Compound (1). Adult male and female mice on the FVB background were injected subcutaneously and then immediately placed inside of an open field chamber, where their activity was recorded automatically for 20-min by an overhead camera connected to a PC running EthoVision XT software. […] Data are means (±SEM).

human M5R = target: T6, human M5R (Homo sapiens, UniProt P08912); test: [3H]Scopolamine radioligand competition binding at M5R
T6 construct: host or cells: HEK293 (CRL-1573, ATCC), transient
T6 sequence (P08912 1-532): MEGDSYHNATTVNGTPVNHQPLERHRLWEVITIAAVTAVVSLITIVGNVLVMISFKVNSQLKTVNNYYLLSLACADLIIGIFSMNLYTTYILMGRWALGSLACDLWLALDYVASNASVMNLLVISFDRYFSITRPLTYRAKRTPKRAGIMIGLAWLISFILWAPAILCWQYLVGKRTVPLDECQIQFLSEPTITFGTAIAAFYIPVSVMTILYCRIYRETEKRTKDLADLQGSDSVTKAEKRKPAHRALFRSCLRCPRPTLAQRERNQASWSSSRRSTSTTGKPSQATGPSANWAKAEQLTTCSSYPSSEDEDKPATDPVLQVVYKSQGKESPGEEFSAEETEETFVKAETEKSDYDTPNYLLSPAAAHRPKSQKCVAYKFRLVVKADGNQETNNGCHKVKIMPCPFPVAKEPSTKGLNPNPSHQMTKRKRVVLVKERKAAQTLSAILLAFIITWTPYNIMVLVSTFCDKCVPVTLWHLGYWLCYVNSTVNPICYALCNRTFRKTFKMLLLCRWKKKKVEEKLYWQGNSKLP
Procedure: as §2, §3

Dopamine transporter (h) = target: T7, Dopamine transporter (h) (Homo sapiens, UniProt Q01959); test: Dopamine transporter (h) (antagonist radioligand) competition binding; conditions: for nH: Dopamine transporter (h) (antagonist radioligand)
T7 construct: Eurofins/Cerep (contract testing)
Procedure: as §1

[3] = human muscarinic M3 (N = 5), [3H]-N-methylscopolamine, read-out: Affinities, Ki ± SEM, nM M3
[4] = Affinities, Ki ± SEM, nM M2, human muscarinic M2 (N = 9), [3H]-N-methylscopolamine

T5 sequence (P23975 whole entry): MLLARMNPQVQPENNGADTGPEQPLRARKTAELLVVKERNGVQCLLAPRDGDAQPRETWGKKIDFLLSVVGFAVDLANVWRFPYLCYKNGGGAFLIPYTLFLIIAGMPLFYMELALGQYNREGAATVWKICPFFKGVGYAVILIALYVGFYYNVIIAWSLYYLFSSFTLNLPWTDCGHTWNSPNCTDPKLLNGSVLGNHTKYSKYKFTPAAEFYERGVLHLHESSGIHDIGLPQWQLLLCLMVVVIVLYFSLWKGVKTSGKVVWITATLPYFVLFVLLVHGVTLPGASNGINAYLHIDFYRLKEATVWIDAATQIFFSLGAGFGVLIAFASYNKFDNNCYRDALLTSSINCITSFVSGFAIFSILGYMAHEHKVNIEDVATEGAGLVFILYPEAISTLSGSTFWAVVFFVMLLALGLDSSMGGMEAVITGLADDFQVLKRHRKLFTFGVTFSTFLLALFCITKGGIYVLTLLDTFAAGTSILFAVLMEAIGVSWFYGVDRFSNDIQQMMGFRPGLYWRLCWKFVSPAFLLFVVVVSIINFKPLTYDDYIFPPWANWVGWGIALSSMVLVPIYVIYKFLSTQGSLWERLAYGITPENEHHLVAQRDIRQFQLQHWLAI
T1 sequence (P31645 whole entry): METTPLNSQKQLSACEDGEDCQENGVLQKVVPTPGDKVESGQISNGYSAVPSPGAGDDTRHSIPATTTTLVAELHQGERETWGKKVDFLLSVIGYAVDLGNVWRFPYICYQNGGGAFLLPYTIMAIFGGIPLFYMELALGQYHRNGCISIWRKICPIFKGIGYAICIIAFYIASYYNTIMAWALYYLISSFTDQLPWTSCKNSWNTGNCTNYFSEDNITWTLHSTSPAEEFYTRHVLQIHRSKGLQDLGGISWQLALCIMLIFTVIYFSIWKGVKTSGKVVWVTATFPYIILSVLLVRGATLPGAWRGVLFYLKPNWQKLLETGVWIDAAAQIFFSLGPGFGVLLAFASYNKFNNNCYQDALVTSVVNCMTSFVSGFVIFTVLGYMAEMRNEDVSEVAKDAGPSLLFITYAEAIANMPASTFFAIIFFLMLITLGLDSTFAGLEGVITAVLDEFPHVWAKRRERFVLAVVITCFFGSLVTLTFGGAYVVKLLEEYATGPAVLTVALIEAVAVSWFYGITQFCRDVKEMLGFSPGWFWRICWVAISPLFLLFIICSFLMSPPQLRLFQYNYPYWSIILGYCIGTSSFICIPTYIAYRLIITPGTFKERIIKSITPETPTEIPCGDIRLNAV
T2 sequence (P20309 whole entry): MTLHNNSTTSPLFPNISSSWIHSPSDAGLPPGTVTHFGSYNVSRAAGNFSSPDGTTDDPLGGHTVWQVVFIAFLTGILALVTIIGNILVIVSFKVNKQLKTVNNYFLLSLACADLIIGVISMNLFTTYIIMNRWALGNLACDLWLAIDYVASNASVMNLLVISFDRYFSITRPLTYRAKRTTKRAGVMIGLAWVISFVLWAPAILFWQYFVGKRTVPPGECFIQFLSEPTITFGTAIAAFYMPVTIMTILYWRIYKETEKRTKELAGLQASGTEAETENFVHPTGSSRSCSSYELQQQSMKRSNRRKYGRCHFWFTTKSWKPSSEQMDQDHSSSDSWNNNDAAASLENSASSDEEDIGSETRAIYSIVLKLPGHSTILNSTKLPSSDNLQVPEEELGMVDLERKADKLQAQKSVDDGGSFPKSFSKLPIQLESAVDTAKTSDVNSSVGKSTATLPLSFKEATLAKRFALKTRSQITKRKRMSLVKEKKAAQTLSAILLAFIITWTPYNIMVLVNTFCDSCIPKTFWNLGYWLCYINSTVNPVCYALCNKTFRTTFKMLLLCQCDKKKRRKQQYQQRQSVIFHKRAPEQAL
T7 sequence (Q01959 whole entry): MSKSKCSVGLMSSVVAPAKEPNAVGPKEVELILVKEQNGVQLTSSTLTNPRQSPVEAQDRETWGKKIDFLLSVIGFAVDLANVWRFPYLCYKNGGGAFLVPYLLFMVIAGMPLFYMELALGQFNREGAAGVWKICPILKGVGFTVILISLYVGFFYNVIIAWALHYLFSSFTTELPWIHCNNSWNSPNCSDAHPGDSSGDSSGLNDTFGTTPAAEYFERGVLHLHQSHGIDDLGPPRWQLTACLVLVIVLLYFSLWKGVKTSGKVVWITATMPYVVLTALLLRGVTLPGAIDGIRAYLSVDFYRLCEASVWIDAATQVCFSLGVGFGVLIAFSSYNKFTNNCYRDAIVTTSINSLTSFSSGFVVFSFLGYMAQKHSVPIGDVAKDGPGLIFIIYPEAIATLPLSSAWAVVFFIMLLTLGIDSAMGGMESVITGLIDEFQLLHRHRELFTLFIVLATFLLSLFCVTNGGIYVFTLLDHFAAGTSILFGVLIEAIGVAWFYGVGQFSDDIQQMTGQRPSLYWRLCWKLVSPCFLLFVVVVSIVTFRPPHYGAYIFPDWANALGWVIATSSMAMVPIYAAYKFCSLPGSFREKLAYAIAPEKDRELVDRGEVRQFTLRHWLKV
T3 sequence (P31652 whole entry): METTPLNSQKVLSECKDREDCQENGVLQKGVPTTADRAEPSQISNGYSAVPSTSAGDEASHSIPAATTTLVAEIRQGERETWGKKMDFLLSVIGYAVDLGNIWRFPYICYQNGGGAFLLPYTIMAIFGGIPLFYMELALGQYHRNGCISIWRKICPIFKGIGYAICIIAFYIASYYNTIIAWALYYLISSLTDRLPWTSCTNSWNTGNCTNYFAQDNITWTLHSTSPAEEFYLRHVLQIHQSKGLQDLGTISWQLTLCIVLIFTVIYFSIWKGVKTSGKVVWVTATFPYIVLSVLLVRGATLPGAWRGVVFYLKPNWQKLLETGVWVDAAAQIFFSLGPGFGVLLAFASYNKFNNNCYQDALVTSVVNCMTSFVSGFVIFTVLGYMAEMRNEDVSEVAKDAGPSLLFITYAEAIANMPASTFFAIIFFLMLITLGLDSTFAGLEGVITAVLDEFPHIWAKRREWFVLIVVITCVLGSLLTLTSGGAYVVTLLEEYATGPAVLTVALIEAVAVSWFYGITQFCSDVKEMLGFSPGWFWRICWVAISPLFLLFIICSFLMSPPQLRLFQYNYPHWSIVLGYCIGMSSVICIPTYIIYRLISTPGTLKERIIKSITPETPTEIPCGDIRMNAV

CCCCC(C(=O)c1ccccc1)N1CCCCC1 (centres unmarked) [Compound (1), 1-phenyl-2-(piperidin-1-yl)hexan-1-one]
IC50 (5-HT transporter (h)): > 100000 nM
Affinity (Ki) SERT (5-HT transporter (h)): neither compound exhibiting demonstrable binding at SERT
Affinity (Ki) SERT (5-HT transporter (h); listed as Compound 1): N.B.
Ki (human M3R; [3]): 994 nM
IC50 (Serotonin transporter): 37000 nM
Ki (human M2R; [4]): 70 nM and 69.9 nM
M2 Selectivity (human M2R): 9.72-17.76
IC50 [1]: 8700 nM
Ki [1]: 6500 nM
nH [1]: 1.6
locomotor activity [2]: nearly indistinguishable from vehicle-treated mice
Ki (human M5R): 679 nM
IC50 (Dopamine transporter (h)): 72 nM
Ki (Dopamine transporter (h)): 38 nM
nH (Dopamine transporter (h)): 1

CCCCC(C(=O)c1ccccc1)N1CCCCCC1 (centres unmarked) [Compound (2), 2-(azepan-1-yl)-1-phenylhexan-1-one]
IC50 (5-HT transporter (h)): > 100000 nM
Affinity (Ki) SERT (5-HT transporter (h)): neither compound exhibiting demonstrable binding at SERT
Affinity (Ki) SERT (5-HT transporter (h); listed as Compound 2): N.B.
Ki (human M3R; [3]): 988 nM
IC50 (Serotonin transporter): 12000 nM
Ki (human M2R; [4]): 90 nM and 89.5 nM
M2 Selectivity (human M2R): 11.04-16.63
IC50 [1]: 13000 nM
Ki [1]: 9800 nM
nH [1]: 0.9
Ki (human M5R): 1040 nM
IC50 (Dopamine transporter (h)): 100 nM
Ki (Dopamine transporter (h)): 54 nM
nH (Dopamine transporter (h)): 0.9

CCCCC(C(=O)c1ccccc1)N1CCCC1 (stereo not drawn) [α-PHP, 1-phenyl-2-(pyrrolidin-1-yl)hexan-1-one]
Ki (human M3R; estimate from 1 and 10 μM concentrations (N = 2), N.C. = <5% displacement of radioligand at 10 μM, read-out: estimated pKi at M3R (converted)): 1660 nM
fold increase in M2R affinity compared to α-PPP (human M2R): 302 fold
Ki (human M2R; Ki at M2Rs, full dose-response [3H]Scopolamine competition binding): 251 nM
Ki (human M2R; estimated pKi at M2R, estimate from 1 and 10 μM concentrations (N = 2), N.C. = <5% displacement of radioligand at 10 μM): 468 nM
locomotor activity [2]: robustly increased locomotor activity compared to vehicle
Ki (human M5R): 1510 nM

Source: patent US11912705B2, “Cathinone derivatives, pharmaceutical formulations, and methods” (The Corporation of Mercer University, priority 2020, dated 2024)
